Literature values, collected in EP0956866A1, “DRUGS FOR AMELIORATING OPHTHALMIC CIRCULATORY DISTURBANCE” (KIRIN BEER KABUSHIKI KAISHA, priority 1996, dated 1998).

Columns and labels:
[1] = disclosed in WO89/10757
[2] = literature report

| SMILES | ocular pressure [1] | ocular blood flow [2] |
| --- | --- | --- |
| CC1(C)Oc2ccc(C#N)cc2C(N2CCCC2=O)C1O (stereo not drawn) [cromakalim] | lower the ocular pressure | lowers the ocular blood flow |
| CC(N/C(=N\C#N)Nc1ccncc1)C(C)(C)C (stereo not drawn) [pinacidil] | lower the ocular pressure | – |
